Experimental findings from US20260265238A1, “COMPOUNDS AND PHARMACEUTICAL COMPOSITIONS THAT DEGRADE SWI/SNF-RELATED MATRIX-ASSOCIATED ACTIN-DEPENDENT REGULATOR OF CHROMATIN SUBFAMILY A” (Plexium, Inc., priority 2023, published 2026) are described below.

By DC50 is commonly meant the midpoint of the concentration-degradation curve. The term inhibition denotes the percentage by which the read-out fell short of the control.

The target in assay [1] is T1, SMARCA2-HiBiT HeLa cells (protein which is expressed from the SMARCA2 gene) (Homo sapiens, UniProt P51531).
T1 construct: protein which is expressed from the SMARCA2 and SMARCA4 genes; host or cells: HeLa (SMARCA2-HiBiT engineered line)
Put plainly: SMARCA2 degradation assay (HiBiT-fusion HeLa cell line, 24 h, luminescence). It is filed as cell-based. In a few lines: (§1)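 HeLa cells carrying HiBiT-tagged SMARCA2 or SMARCA4 were seeded at 8,000 cells/well, allowed to attach overnight at 37° C., then given compounds in a 10-point dilution series (typically 10 μM to 300 pM) for 24 hours at 37° C. Remaining tagged protein was read by HiBiT lytic luminescence, and DC50s came from dose-response curves.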

Assay [2] has as its target T2, SMARCA4-HiBiT HeLa cells (protein which is expressed from the SMARCA4 gene) (Homo sapiens, UniProt P51532).
T2 construct: protein which is expressed from the SMARCA2 and SMARCA4 genes; host or cells: HeLa (SMARCA4-HiBiT engineered line)
Put plainly: SMARCA4 degradation assay (HiBiT-fusion HeLa cell line, 24 h, luminescence). It is filed as cell-based. In a few lines:
as §1

T1 sequence (P51531 whole entry): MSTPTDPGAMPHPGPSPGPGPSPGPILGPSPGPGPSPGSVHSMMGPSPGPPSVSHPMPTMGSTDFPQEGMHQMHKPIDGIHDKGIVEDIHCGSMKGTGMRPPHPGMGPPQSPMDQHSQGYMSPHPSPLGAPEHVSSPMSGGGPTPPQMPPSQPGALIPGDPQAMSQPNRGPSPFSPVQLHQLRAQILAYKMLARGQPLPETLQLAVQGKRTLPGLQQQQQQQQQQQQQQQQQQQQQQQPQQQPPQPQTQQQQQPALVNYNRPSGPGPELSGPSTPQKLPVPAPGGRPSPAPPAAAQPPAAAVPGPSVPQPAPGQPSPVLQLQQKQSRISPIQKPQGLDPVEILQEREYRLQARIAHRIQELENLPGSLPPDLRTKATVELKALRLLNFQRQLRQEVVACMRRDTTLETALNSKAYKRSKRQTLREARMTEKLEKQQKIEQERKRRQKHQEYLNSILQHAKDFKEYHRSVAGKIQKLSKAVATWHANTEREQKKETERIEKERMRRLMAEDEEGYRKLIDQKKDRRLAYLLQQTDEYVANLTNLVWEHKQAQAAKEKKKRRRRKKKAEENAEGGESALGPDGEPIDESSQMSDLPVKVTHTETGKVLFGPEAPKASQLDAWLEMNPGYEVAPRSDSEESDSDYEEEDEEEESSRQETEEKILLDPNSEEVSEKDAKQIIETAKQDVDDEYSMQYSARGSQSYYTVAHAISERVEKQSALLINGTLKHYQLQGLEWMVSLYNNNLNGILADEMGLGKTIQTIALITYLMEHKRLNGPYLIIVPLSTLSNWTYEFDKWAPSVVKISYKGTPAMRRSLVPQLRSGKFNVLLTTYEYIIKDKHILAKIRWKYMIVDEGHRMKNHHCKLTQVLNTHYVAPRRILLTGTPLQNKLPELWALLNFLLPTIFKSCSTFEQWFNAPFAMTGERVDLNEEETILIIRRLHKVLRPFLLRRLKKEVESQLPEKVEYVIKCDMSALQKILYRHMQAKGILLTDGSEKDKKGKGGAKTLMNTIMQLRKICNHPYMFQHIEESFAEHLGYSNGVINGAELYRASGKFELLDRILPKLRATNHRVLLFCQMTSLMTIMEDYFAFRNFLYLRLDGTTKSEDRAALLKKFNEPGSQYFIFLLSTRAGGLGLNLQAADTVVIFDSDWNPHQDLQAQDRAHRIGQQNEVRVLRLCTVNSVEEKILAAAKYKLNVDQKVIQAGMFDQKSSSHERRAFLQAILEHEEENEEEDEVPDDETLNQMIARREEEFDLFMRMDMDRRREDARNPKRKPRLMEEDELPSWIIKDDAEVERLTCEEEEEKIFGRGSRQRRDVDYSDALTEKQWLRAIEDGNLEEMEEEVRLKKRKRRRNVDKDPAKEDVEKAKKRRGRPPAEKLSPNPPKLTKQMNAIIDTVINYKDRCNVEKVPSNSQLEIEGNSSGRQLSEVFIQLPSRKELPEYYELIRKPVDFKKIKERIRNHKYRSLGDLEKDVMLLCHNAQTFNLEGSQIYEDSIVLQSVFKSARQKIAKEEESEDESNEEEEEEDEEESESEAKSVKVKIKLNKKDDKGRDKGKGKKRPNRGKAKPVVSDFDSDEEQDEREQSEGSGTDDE
T2 sequence (P51532 whole entry): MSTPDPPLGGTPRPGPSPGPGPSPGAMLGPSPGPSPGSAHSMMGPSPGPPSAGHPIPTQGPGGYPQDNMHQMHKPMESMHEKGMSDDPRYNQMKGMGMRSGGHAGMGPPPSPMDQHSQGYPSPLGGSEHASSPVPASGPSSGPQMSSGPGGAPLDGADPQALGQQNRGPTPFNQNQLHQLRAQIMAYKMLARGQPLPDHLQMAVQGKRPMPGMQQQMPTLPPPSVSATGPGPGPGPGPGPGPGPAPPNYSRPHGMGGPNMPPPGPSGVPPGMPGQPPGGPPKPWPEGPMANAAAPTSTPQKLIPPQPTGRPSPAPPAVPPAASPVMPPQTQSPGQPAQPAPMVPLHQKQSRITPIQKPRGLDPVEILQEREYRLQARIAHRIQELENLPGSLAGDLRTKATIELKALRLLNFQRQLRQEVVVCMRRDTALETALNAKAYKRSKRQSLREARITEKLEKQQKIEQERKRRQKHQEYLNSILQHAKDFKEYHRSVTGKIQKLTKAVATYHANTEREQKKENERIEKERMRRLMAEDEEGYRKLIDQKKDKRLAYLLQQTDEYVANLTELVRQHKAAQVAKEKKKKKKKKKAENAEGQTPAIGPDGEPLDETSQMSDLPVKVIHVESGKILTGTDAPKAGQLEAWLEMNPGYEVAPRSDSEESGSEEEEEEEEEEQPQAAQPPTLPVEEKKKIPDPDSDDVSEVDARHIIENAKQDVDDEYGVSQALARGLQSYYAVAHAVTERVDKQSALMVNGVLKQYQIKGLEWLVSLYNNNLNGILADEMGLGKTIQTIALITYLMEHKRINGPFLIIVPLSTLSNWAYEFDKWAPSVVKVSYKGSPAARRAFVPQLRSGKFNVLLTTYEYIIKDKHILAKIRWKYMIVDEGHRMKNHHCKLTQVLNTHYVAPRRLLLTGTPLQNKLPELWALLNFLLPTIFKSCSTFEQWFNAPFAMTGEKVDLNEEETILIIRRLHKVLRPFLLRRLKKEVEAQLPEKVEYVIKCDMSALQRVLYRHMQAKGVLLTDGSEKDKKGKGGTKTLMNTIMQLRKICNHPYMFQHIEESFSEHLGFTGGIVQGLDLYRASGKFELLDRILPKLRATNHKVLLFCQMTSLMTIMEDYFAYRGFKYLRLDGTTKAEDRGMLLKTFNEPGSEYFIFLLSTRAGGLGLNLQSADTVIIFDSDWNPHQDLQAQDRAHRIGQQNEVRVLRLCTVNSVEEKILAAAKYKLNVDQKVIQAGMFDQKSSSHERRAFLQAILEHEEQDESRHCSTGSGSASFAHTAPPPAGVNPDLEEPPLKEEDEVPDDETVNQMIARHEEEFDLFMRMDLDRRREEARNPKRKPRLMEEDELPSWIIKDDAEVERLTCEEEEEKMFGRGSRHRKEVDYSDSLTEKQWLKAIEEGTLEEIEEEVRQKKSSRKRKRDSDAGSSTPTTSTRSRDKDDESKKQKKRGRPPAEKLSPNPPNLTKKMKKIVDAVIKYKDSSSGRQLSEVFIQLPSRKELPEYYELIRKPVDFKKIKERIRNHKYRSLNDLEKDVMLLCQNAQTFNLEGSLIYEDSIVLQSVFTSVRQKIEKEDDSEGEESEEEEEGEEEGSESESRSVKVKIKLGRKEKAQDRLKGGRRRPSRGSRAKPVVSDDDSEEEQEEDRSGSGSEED

As for `C[C@@H]1COC[C@H](C)N1CC#Cc1nccc(N2CCCN(c3cc(-c4ccccc4O)nnc3N)CC2)n1` [Compound P-318, 0-{5-[4-(2-{3-[(3R,5S)-3,5-dimethyl-4-morpholinyl]-1-propynyl}-4-pyrimidinyl)-1,4-diazepan-1-yl]-6-amino-3-pyridazinyl}phenol], the DC50 in assay [1] and in assay [2] was 50 to 500 nM throughout. The “SMARCA2 % Degradation @ 1 μM” value in assay [1] (@ 1 μM) is “++ (++=30-70%)”. For the same compound, in assay [2] (@ 1 μM), the inhibition at 1 µM is 30 to 70%.
With `Nc1nnc(-c2ccccc2O)cc1N1CCCN(c2ccnc(C#CC3CC3)n2)CC1` [Compound P-359, 0-(6-amino-5-{4-[2-(2-cyclopropylethynyl)-4-pyrimidinyl]-1,4-diazepan-1-yl}-3-pyridazinyl)phenol], the DC50 in assay [1] and in assay [2] was 50 to 500 nM each time. Also, the “SMARCA2 % Degradation @ 1 μM” value in assay [1] (@ 1 μM) is recorded as “++ (++=30-70%)”. This compound also gave an inhibition at 1 µM in assay [2] (@ 1 μM) of under 30%.
Turning to `Nc1nnc(-c2ccccc2O)cc1N1CCN(c2ccnc(C#CCNC(=O)c3cnn4cccnc34)n2)CC1` [Compound P-71, N-(3-(4-(4-(3-amino-6-(2-hydroxyphenyl)pyridazin-4-yl)piperazin-1-yl)pyrimidin-2-yl)prop-2-yn-1-yl)pyrazolo[1,5-a]pyrimidine-3-carboxamide], the DC50 in assay [1] and in assay [2] was 50 to 500 nM each time. Besides, the “SMARCA2 % Degradation @ 1 μM” value in assay [1] (@ 1 μM) is reported as “++ (++=30-70%)”. The inhibition at 1 µM in assay [2] (@ 1 μM) lay within 30 to 70%.
Regarding `Nc1nnc(-c2ccccc2O)cc1N1CCN(c2ccnc(C#CCNC(=O)c3ccn(C4CC4)n3)n2)CC1` [Compound P-11, N-[3-(4-{4-[3-amino-6-(2-hydroxyphenyl)pyridazin-4-yl]piperazin-1-yl}pyrimidin-2-yl)prop-2-yn-1-y1]-1-cyclopropyl-1H-pyrazole-3-carboxamide], the half-maximal degradation concentration (DC50) in assay [1] and in assay [2] was under 50 nM throughout. In addition, the “SMARCA2 % Degradation @ 1 μM” value in assay [1] (@ 1 μM) is “++ (++=30-70%)”. The inhibition at 1 µM in assay [2] (@ 1 μM) was in the range of 30 to 70%.
On to `Nc1nnc(-c2ccccc2O)cc1N1CCN(c2ccnc(C#CCCCNC(=O)c3cc4ncccn4n3)n2)CC1` [Compound P-92, N-(5-(4-(4-(3-amino-6-(2-hydroxyphenyl)pyridazin-4-yl)piperazin-1-yl)pyrimidin-2-yl)pent-4-yn-1-yl)pyrazolo[1,5-a]pyrimidinc-2-carboxamidc], for which the DC50 in assay [1] and in assay [2] was 50 to 500 nM in each case. The “SMARCA2 % Degradation @ 1 μM” value in assay [1] (@ 1 μM) is listed as “+ (+=<30%)”. The inhibition at 1 µM in assay [2] (@ 1 μM) was 30 to 70%.
Take `Nc1nnc(-c2ccccc2O)cc1N1CC2CN(c3ccnc(C#CCNC(=O)c4cc5ncccn5n4)n3)CC21` (stereo not drawn) [Compound P-45, N-(3-(4-(6-(3-amino-6-(2-hydroxyphenyl)pyridazin-4-yl)-3,6-diazabicyclo[3.2.0]heptan-3-yl)pyrimidin-2-yl)prop-2-yn-1-yl)pyrazolo[1,5-a]pyrimidine-2-carboxamide]: the 50% degradation concentration (DC50) in assay [1] and in assay [2] was 500 to 5000 nM throughout. Also, the “SMARCA2 % Degradation @ 1 μM” value in assay [1] (@ 1 μM) was “+ (+=<30%)”. The same compound had an inhibition at 1 µM in assay [2] (@ 1 μM) of under 30%.
Regarding `CC(=O)N(C)C/C=C/c1nccc(N2CCN(c3cc(-c4ccccc4O)nnc3N)CC[C@H]2C)n1` [Compound P-153, N-[3-(4-{(R)-4-[3-amino-6-(o-hydroxyphenyl)-4-pyridazinyl]-7-methyl-1,4-diazepan-1-yl}-2-pyrimidinyl)-2-propenyl]-N-methylacetamide], the DC50 in assay [1] and in assay [2] was 50 to 500 nM in each case. Besides, the “SMARCA2 % Degradation @ 1 μM” value in assay [1] (@ 1 μM) is recorded as “++ (++=30-70%)”. Also, the inhibition at 1 µM in assay [2] (@ 1 μM) was 30 to 70%.
For `CC1(NCC#Cc2nccc(N3CCCN(c4cc(-c5ccccc5O)nnc4N)CC3)n2)COC1` [Compound P-278, 0-[6-amino-5-(4-{2-[3-(3-methyl-3-oxetanylamino)-1-propynyl]-4-pyrimidinyl}-1,4-diazepan-1-yl)-3-pyridazinyl]phenol], the 50% degradation concentration (DC50) in assay [1] and in assay [2] was 50 to 500 nM in each case. Further, the “SMARCA2 % Degradation @ 1 μM” value in assay [1] (@ 1 μM) is reported as “++ (++=30-70%)”. The same compound yielded an inhibition at 1 µM in assay [2] (@ 1 μM) of 30 to 70%.
As for `Nc1nnc(-c2ccccc2O)cc1N1CCCN(c2ccnc(C#CCNc3nc4ccccc4o3)n2)CC1` [Compound P-26, 2-(6-amino-5-(4-(2-(3-(benzo[d]oxazol-2-ylamino)prop-1-yn-1-yl)pyrimidin-4-yl)-1,4-diazepan-1-yl)pyridazin-3-yl)phenol], the DC50 in assay [1] and in assay [2] was 50 to 500 nM each time. Further, the “SMARCA2 % Degradation @ 1 μM” value in assay [1] (@ 1 μM) was “+++ (+++=>70%)”. The compound further came in with an inhibition at 1 µM in assay [2] (@ 1 μM) of over 70%.
Turning to `COCC1COCCN1CC#Cc1nccc(N2CCN(c3cc(-c4ccccc4O)nnc3N)CC[C@H]2C)n1` (stereo partly drawn) [Compound P-162, o-{5-[(R)-4-(2-{3-[3-(mcthoxymcthyl)-4-morpholinyl]-1-propynyl}-4-pyrimidinyl)-5-methyl-1,4-diazepan-1-yl]-6-amino-3-pyridazinyl}phenol], the DC50 in assay [1] and in assay [2] was 50 to 500 nM each time. In assay [1] (@ 1 μM), the “SMARCA2 % Degradation @ 1 μM” value was “++ (++=30-70%)”. The inhibition at 1 µM in assay [2] (@ 1 μM) is 30 to 70%.
Turning to `C[C@@H]1CCN(c2cc(-c3ccccc3O)nnc2N)CCN1c1ccnc(C#CC2CC2)c1` [Compound P-391, 0-(5-{(R)-4-[2-(2-cyclopropylethynyl)-4-pyridyl]-5-methyl-1,4-diazepan-1-yl}-6-amino-3-pyridazinyl)phenol], the DC50 in assay [1] and in assay [2] was 50 to 500 nM throughout. Besides, in assay [1] (1 μM), the “SMARCA2 % Degradation @ 1 μM” value is “++ (++=30-70%)”.
With `Nc1nnc(-c2ccccc2O)cc1N1CC2CCC(C1)N2c1ccnc(C#CCNC(=O)c2cc3ncccn3n2)n1` [Compound P-119, N-(3-(4-(3-(3-amino-6-(2-hydroxyphenyl)pyridazin-4-yl)-3,8-diazabicyclo[3.2.1]octan-8-yl)pyrimidin-2-yl)prop-2-yn-1-yl)pyrazolo[1,5-a]pyrimidine-2-carboxamide], the DC50 was over 5000 nM in assay [1] and 500 to 5000 nM in assay [2]. Besides, the “SMARCA2 % Degradation @ 1 μM” value in assay [1] (@ 1 μM) was “+ (+=<30%)”. In addition, the inhibition at 1 µM in assay [2] (@ 1 μM) is under 30%.
Turning to `Nc1nnc(-c2ccccc2O)cc1N1C2CCC1CN(c1ccnc(C#CCn3ccnc3)n1)C2` [Compound P-284, 0-[6-amino-5-(3-{2-[3-(1-imidazolyl)-1-propynyl]-4-pyrimidinyl}-3,8-diazabicyclo[3.2.1]oct-8-yl)-3-pyridazinyl]phenol], the figures for the half-maximal degradation concentration (DC50) in assay [1] and in assay [2] were 50 to 500 nM and 500 to 5000 nM, respectively. Moreover, the “SMARCA2 % Degradation @ 1 μM” value in assay [1] (@ 1 μM) is on record as “++ (++=30-70%)”. This compound gave an inhibition at 1 µM in assay [2] (@ 1 μM) of under 30%.
For `CC1(F)CCN(CC#Cc2nccc(N3CC4CCC(C3)N4c3cc(-c4ccccc4O)nnc3N)n2)C1` (stereo not drawn) [Compound P-193, o-[6-amino-5-(3-{2-[3-(3-fluoro-3-methyl-1-pyrrolidinyl)-1-propynyl]-4-pyrimidinyl}-3,8-diazabicyclo[3.2.1]oct-8-yl)-3-pyridazinyl]phenol] the same measures were 50 to 500 nM, 50 to 500 nM, “++ (++=30-70%)” and under 30%.
Regarding `Cc1cc(C(=O)NCC#Cc2nccc(N3CCN(c4cc(-c5ccccc5O)nnc4N)CC3)n2)nn1C` [Compound P-12, N-(3-(4-(4-(3-amino-6-(2-hydroxyphenyl)pyridazin-4-yl)piperazin-1-yl)pyrimidin-2-yl)prop-2-yn-1-yl)-1,5-dimethyl-1H-pyrazole-3-carboxamide], the DC50 in assay [1] and in assay [2] was 50 to 500 nM each time. Further, in assay [1] (@ 1 μM), the “SMARCA2 % Degradation @ 1 μM” value is “++ (++=30-70%)”. In assay [2] (@ 1 μM), this compound yielded an inhibition at 1 µM of 30 to 70%.
With `CC(C)(C)OC(=O)NCC#Cc1nccc(N2CC3CC(Oc4cc(-c5ccccc5O)nnc4N)CC3C2)n1` (stereo not drawn) [Compound P-221, 4-(3-{2-[3-(tert-butoxycarbonylamino)-1-propynyl]-4-pyrimidinyl}-3-azabicyclo[3.3.0]oct-7-yloxy)-6-(o-hydroxyphenyl)-3-pyridazinamine], the half-maximal degradation concentration (DC50) in assay [1] and in assay [2] was 50 to 500 nM in each case. In assay [1] (@ 1 μM), the “SMARCA2 % Degradation @ 1 μM” value is listed as “+++ (+++=>70%)”. In assay [2] (@ 1 μM), this compound yielded an inhibition at 1 µM of over 70%.
Take `CC(C)[C@@H]1COCCN1CC#Cc1nccc(N2CCN(c3cc(-c4ccccc4O)nnc3N)CC[C@H]2C)n1` [Compound P-262, o-{5-[(R)-4-(2-{3-[(R)-3-isopropyl-4-morpholinyl]-1-propynyl}-4-pyrimidinyl)-5-methyl-1,4-diazepan-1-yl]-6-amino-3-pyridazinyl} phenol]: the DC50 in assay [1] and in assay [2] was 50 to 500 nM in each case. For the same compound, the “SMARCA2 % Degradation @ 1 μM” value in assay [1] (@ 1 μM) is “+++ (+++=>70%)”. Besides, in assay [2] (@ 1 μM), the inhibition at 1 µM is 30 to 70%.
For `C[C@@H]1CCN(c2cc(-c3ccccc3O)nnc2N)CCN1c1ccnc(C#CCn2cccn2)n1` [Compound P-332, 0-{5-[(R)-5-methyl-4-{2-[3-(1-pyrazolyl)-1-propynyl]-4-pyrimidinyl}-1,4-diazepan-1-y1]-6-amino-3-pyridazinyl}phenol], the half-maximal degradation concentration (DC50) in assay [1] is under 50 nM; in assay [2], 50 to 500 nM. Also, the “SMARCA2 % Degradation @ 1 μM” value in assay [1] (@ 1 μM) is given as “++ (++=30-70%)”. In assay [2] (@ 1 μM), this compound registered an inhibition at 1 µM of under 30%.
`C[C@@H]1CCN(c2cc(-c3ccccc3O)nnc2N)CCN1c1ccnc(C#CCO)c1` [Compound P-397, 0-(5-{(R)-4-[2-(3-hydroxy-1-propynyl)-4-pyridyl]-5-methyl-1,4-diazepan-1-yl}-6-amino-3-pyridazinyl)phenol]: the DC50 in assay [1] is 50 to 500 nM; in assay [2] it was 500 to 5000 nM. Further, in assay [1] (1 μM), the “SMARCA2 % Degradation @ 1 μM” value was “++ (++=30-70%)”. In assay [2] (1 μM), this compound gave an inhibition at 1 µM of 30 to 70%.
